The values below come from the METLIN SMRT retention time set (Domingo-Almenara et al. 2019).

Each structure is given as a SMILES string.

This data set in a line: gradient 5% acetonitrile 3 min, to 50% in 2 min, to 85% in 15 min, held 3 min, 100 µL/min. The conditions noted are these: column: Zorbax Extend-C18 2.1 x 50 mm; eluents: water / acetonitrile, 0.1% formic acid. The method, boiled down:
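Retention times come from adduct peaks that were picked computationally and then checked by hand. The standards, pure and pooled in mixtures of ~100 molecules, were run on a Zorbax Extend-C18 column (2.1 × 50 mm, 1.8 μm) at 100 μL/min with water and acetonitrile, each with 0.1% formic acid. Detection was by quadrupole time-of-flight mass spectrometry in positive and negative ionization mode, with a dead volume of 40 μL and a dwell volume of 900 μL.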
With `Cc1ccc(C(=O)N2CCC3(CC2)NC(=O)c2ccc(F)cc2N3C)cc1`, the RP-LC retention time was 763 s. For `Cc1ccc(CN(C(=O)COc2cc(C)c(Cl)c(C)c2)C2CCS(=O)(=O)C2)o1` (stereo not given) the value was 1030 s; for `c1ccc2c(c1)-c1cccc3cncc-2c13`, 897 s.

`COc1ccc(-c2nc3ccccn3c2Nc2ccc3c(c2)OCCO3)cc1` gave an RP-LC retention time of 719 s. `COCCn1nc2n(c1=O)CCN(C(=O)c1ccco1)CC2` yielded an RP-LC retention time of 585 s.

`COc1cc(-c2nc3nc(C)cc(C)n3c2Nc2ccc(Cl)cc2)ccc1O` displayed an RP-LC retention time of 656 s. In turn, `CC(C)CC(=O)N1CCc2[nH]nc(C(=O)NCCCc3ccccc3)c2C1` gave an RP-LC retention time of 795 s. For `COCCNC(=O)C1CCCN(c2cc(=O)n(C)c(=O)n2C)C1` (stereo not given) the value was 567 s; for `COCCC1CCN(C(=O)CN(C)C(=O)c2cccn2C)CC1`, 670 s. The result for `CN(CC(=O)NC1CCCCC1)S(=O)(=O)c1c[nH]c(C(=O)N2CCCC2)c1` reads 722 s; that for `CC1CCN(S(=O)(=O)c2ccc3nn(Cc4cccc(F)c4)c(=O)n3c2)CC1`, 781 s. For `CN1CCn2cc(S(=O)(=O)Nc3cccc(Cl)c3)cc2C1=O` the value was 709 s; for `Cc1noc(C)c1S(=O)(=O)N1CC(c2nc(Cc3cccnc3)no2)C1`, 588 s. Turning to `CCC(C)NC(=O)Cn1nc2c(Oc3ccccc3)nc3ccccc3n2c1=O` (stereo not given), the RP-LC retention time is 895 s. For `CC(NC(=O)Cn1nc(Cc2cccnc2)c2ccccc2c1=O)c1ccc2c(c1)OCCO2` (stereo not given) the value was 632 s; for `COC(=O)c1cccc(NC(=O)N2C[C@H]3C[C@@H](C2)c2cccc(=O)n2C3)c1`, 636 s.

With `O=C(NCCCc1ccccc1)C1CCN(C(=O)c2ncn3c2COC(c2ccc(F)cc2)C3)CC1` (stereo not given), the RP-LC retention time amounted to 818 s. For `Cc1noc(C2(NC(=O)/C=C/c3cccnc3)CCCCC2)n1` the value was 609 s; for `COc1ccccc1-c1noc(C2CCCN2C(=O)c2n[nH]c3ccccc23)n1` (stereo not given), 829 s; for `Cc1ccccc1NC(=O)C1CCN(S(=O)(=O)c2ccc3c(c2)sc(=O)n3C(C)C)CC1`, 951 s. In turn, `O=C(CN1C(=O)NC2(CCCCC2)C1=O)Nc1ccc2c(c1)CCC2` showed an RP-LC retention time of 846 s.

For `O=C(NC1CCCC1)c1ccc2c(c1)CC(=O)N2Cc1ccc(F)cc1`, the RP-LC retention time amounted to 824 s. For `O=C(NCCSCc1ccco1)c1cc(-c2cccnc2)nc2ccccc12` the value was 738 s; for `O=C(NCc1ccccc1)c1cccn1Cc1noc(-c2ccccc2)n1`, 981 s; for `CCOC(=O)CCNC(=O)N1c2ccccc2CC1c1nc(C(C)C)no1` (stereo not given), 609 s.

In turn, `COc1ccc(C(=O)NCCc2sc(-c3cccnc3)nc2C)cc1` returned an RP-LC retention time of 619 s. Compound `COc1ccc(-c2nc3cnccn3c2Nc2cccc(C)c2C)cc1OC` displayed an RP-LC retention time of 838 s. Take `Cn1c(C(=O)NCc2cccc(F)c2)cc2ccncc21`: the RP-LC retention time came out at 609 s.

In turn, `O=C(Cc1cc(-c2ccc3c(c2)OCO3)on1)Nc1ccc(F)c(F)c1F` gave an RP-LC retention time of 888 s. With `CCCCOc1ccc(C(=O)Nc2cc(OC)ccc2OC)cc1`, the RP-LC retention time was determined as 1110 s. In turn, `O=C1CC(c2cc(Br)ccc2F)c2scc(S(=O)(=O)c3ccccc3)c2N1` (stereo not given) registered an RP-LC retention time of 1010 s.

For the compound `O=C(Nc1ccccc1)N(Cc1nnc2n1CCCCC2)c1ccc2c(c1)OCO2`, the RP-LC retention time amounted to 703 s. The compound `Cc1ccc(C(=O)N2CC=C(C(=O)NC3CC3)CC2)cc1` came in with an RP-LC retention time of 847 s. For `CCSc1nnc(NC(=O)CSc2nn3c(=O)c(C)nnc3s2)s1` the value was 640 s; for `CCOc1ccc(CC(=O)Nc2ccc(-c3nc(-c4ccccc4)co3)cc2)cc1OCC`, 1150 s.

`Cc1cccc(OCc2nc(CCN(C)C(=O)Nc3ccccc3C)no2)c1`: the RP-LC retention time came to 919 s. For `CN(C(=O)c1ccc2c(c1)OCO2)C1CCc2nn(CC3CC3)c(=O)n2CC1` (stereo not given) the value was 670 s; for `O=C(Nc1ccc2c(c1)OCO2)C1CC(=O)N(CCc2c[nH]c3ccc(Cl)cc23)C1` (stereo not given), 801 s.

`COCCC(=O)N1CCOc2ccc(N(C)C)cc2C1` had an RP-LC retention time of 612 s.

The compound `Cc1cccc(CNC(=O)CN2C(=O)C3CCCCN3c3ccc(S(=O)(=O)N4CCCC4)cc32)c1` (stereo not given) showed an RP-LC retention time of 1080 s. The result for `CCOc1ccccc1CNC(=O)c1nnc(-c2ccc(S(=O)(=O)N3CCC(C)CC3)cc2)o1` reads 1140 s. For `CCN(CC)C(=O)c1ccc2c(c1)N(CC(=O)N1CCCC1)C(=O)C1CCCCN21` (stereo not given) the value was 753 s; for `Cc1ccc(-c2ccc(N3CCCC(C(=O)NCCc4cccs4)C3)nn2)cc1C` (stereo not given), 808 s. For `COc1cc(NC(=O)Cc2csc3nc(-c4ccc(C)c(C)c4)cn23)cc(OC)c1` the value was 772 s. The compound `COc1cccc(CNC(=O)c2cc3cn(C4CC4)cc3s2)c1OC` registered an RP-LC retention time of 507 s. Take `COc1cc(-c2oc3cc(O)ccc3c(=O)c2O)ccc1O`: the RP-LC retention time is 687 s. For `COc1ccc(NC(=O)C2CC(=O)N(CCc3c[nH]c4ccc(Cl)cc34)C2)cc1` (stereo not given) the value was 818 s; for `O=S(=O)(NCc1ccccc1C(F)(F)F)c1c[nH]c2ncccc12`, 785 s; for `COC(=O)c1sccc1NC(=O)N1CCc2c([nH]c3ccccc23)C1c1ccc(F)cc1` (stereo not given), 1300 s.

On to `COCCn1c(C2CCN(C(=O)Cc3ccc(Cl)cc3)C2)nc2ccncc21` (stereo not given), for which the RP-LC retention time came out at 570 s. The result for `CCOc1ccc(NC(=O)c2oc3ccc(Br)cc3c2C)c2cccnc12` reads 815 s. For `COc1ccc(S(=O)(=O)N2CCCC(C(=O)NCc3ccncc3)C2)cc1OC` (stereo not given) the value was 591 s; for `c1cc(-c2noc(-c3ccc4c(c3)OCO4)n2)cc(N2CCCC2)n1`, 690 s. The result for `Clc1cccc(-n2cc(-c3noc(-c4ccc5c(c4)OCO5)n3)nn2)c1` reads 1100 s; that for `Cc1noc(C2CCCCN2Cc2cc(=O)n3ccccc3n2)n1` (stereo not given), 608 s; that for `CC(C)c1cc(=O)n(CC(=O)NCCn2nc(-c3cccs3)ccc2=O)cn1`, 619 s. With `O=S(=O)(NCc1ccccc1)c1ccc2c(c1)-c1oncc1CO2`, the RP-LC retention time amounted to 860 s.

For `Cc1c(Cl)cccc1NC(=O)C(C)C1CCN(C(=O)Nc2ccc(F)cc2)CC1` (stereo not given), the RP-LC retention time was 904 s. The result for `NC(=O)c1cnn2c3c(cnc12)CCCCCC3` reads 801 s; that for `CC1(C(=O)NCc2ccc(F)cc2)CN(S(C)(=O)=O)CC(=O)N1Cc1ccc(F)cc1` (stereo not given), 841 s; that for `COC[C@@H]1CN(S(=O)(=O)Cc2ccccc2)C[C@H]1c1nc(C)no1`, 836 s.

`CC(C)n1c(=O)oc2cc(-c3noc(-c4ccc(F)cc4)n3)ccc21` came in with an RP-LC retention time of 1170 s. Consider `O=C(CCC1CCCC1)Nc1nc(-c2ccc(Cl)cc2)cs1`, for which the RP-LC retention time stood at 1290 s. For `CCc1noc(-c2ccc(-n3cnc(C(=O)NC(C)c4ccc(F)cc4)c3)nc2)n1` (stereo not given) the value was 1000 s; for `CCc1noc(NC(C)=O)c1-c1ccc(C)c(S(=O)(=O)Nc2ccc(F)cc2C)c1`, 848 s; for `Cc1ccn2cc(-c3ccc(NC(=O)CCC4CCCCC4)cc3)nc2n1`, 761 s. The result for `O=C(NCC1CCOCC1)Nc1cccc(Cl)c1` reads 735 s; that for `O=C(N1CCc2ccccc2C1)C1(c2ccccc2)CCOCC1`, 891 s. Compound `O=C(NCCn1c(-c2ccc(F)cc2)nc2cccnc21)c1ccc2c(c1)OCO2` yielded an RP-LC retention time of 697 s.

Take `O=S(=O)(c1ccc2c(c1)CCC2)N1CCCC1c1nc(-c2cccc(Cl)c2)no1` (stereo not given): the RP-LC retention time was determined as 1310 s. For `CCN1C(=O)C(CC(=O)NCC2CCCCC2)Sc2ncccc21` (stereo not given) the value was 808 s; for `COc1ccccc1N1CCN(c2nnc(-c3nnc(C)o3)c3ccccc23)CC1`, 889 s.

`COCCN(Cc1ccc(Cl)cc1)Cc1cc(=O)c2cccc(F)c2[nH]1` registered an RP-LC retention time of 983 s.

Compound `COc1ccc(C(=O)N2C[C@@H]3C[C@H](NC(=O)c4cccs4)[C@H]2C3)cn1` came in with an RP-LC retention time of 679 s. The result for `O=C(c1ccc(C(F)(F)F)cc1)N1CCc2nc(-c3ccc(F)cc3)ncc2C1` reads 1080 s; that for `O=C(CN1C(=O)C2CCCCN2c2ccc(S(=O)(=O)N3CCCC3)cc21)N1CCCCCC1` (stereo not given), 918 s; that for `Cc1ccc2c(c1)C(O)(CC(=O)c1ccccc1)C(=O)N2` (stereo not given), 666 s. The result for `O=C(Cc1nc(-c2ccccn2)n[nH]1)Nc1cccc(Cl)c1` reads 673 s; that for `CC(C)S(=O)(=O)c1cc2c(cc1NC(=O)c1ccc(Br)cc1)n(C)c(=O)n2C`, 951 s; that for `CCc1ccc(C(C)NS(=O)(=O)c2cc3c(s2)CCN(C(=O)C2CCC2)C3)cc1` (stereo not given), 1020 s.
